In patent US20230039917A1, “EXO-AZA SPIRO INHIBITORS OF MENIN-MLL INTERACTION” (Janssen Pharmaceutica NV, priority 2017, published 2023):
Where two headings read alike, the source gives them in different places.

How the values were obtained:
[1] = target: T1, menin.FITC-MBM1 complex (terbium chelate-labeled menin) (Homo sapiens, UniProt O00255, F410E/T541A); assay: Menin/MLL homogenous time-resolved fluorescence (HTRF) assay; format: binding
T1 construct: Menin (a.a. 1-610-6×his tag) was labeled with terbium cryptate as follows
T1 sequence (O00255 with tags, fused parts or gaps F410E/T541A): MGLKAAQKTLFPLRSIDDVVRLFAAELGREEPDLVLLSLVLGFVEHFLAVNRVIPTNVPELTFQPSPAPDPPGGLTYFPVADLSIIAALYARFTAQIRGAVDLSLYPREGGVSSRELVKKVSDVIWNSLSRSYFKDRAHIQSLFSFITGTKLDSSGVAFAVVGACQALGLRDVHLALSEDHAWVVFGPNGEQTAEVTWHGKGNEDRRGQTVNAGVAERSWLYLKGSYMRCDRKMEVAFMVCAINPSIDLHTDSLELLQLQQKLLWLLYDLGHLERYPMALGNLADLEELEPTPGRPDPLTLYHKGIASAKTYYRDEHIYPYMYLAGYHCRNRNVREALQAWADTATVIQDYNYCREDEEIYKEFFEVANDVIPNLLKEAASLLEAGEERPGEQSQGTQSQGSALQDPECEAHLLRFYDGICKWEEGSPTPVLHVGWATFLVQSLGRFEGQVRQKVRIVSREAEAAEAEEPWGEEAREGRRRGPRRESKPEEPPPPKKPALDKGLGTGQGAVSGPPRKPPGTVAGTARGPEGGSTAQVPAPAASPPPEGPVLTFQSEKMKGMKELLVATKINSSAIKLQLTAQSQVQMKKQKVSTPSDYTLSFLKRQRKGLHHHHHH
Description: 2) Menin/MLL Homogenous Time-Resolved Fluorescence (HTRF) Assay
To an untreated, white 384-well microtiter plate was added 40 nL 200× test compound in DMSO and 4 μL 2× terbium chelate-labeled menin (vide infra for preparation) in assay buffer (40 mM Tris.HCl, pH 7.5, 50 mM NaCl, 1 mM DTT and 0.05% Plutonic F-127). After incubation of test compound and terbium chelate-labeled menin for 5 min at ambient temperature, 4 μL2× FITC-MBM1 peptide (FITC-β-alanine-[…]-NH2) in assay buffer was added, the microtiter plate centrifuged at 1000 rpm for 1 min and the assay mixtures incubated for 15 min at ambient temperature. The relative amount of menin.FITC-MBM1 complex present in an assay mixture is determined by measuring the homogenous time-resolved fluorescence (HTRF) of the terbium/FITC donor/acceptor fluorphore pair using a BMG Pherastar plate reader (ex. 337 nm/terbium em. 490 nm/FITC em. 520 nm) at ambient temperature. The degree of fluorescence resonance energy transfer (the HTRF value) is expressed as the ratio of the fluorescence emission intensities of the FITC and terbium fluorophores (F^em 520 nm/F^em 490 nm). The final concentrations of reagents in the binding assay are 100 pM terbium chelate-labeled menin (location 1) or 600 pM terbium chelate-labeled menin (location 2), 75 nM FITC-MBM1 peptide and 0.5% DMSO in assay buffer. Dose-response titrations of test compounds are conducted using an 11 point, three-fold serial dilution scheme, starting typically at 25 μM (location 1) or starting typically at 10 μM (location 2).
Compound potencies were determined by first calculating % inhibition at each compound concentration according to equation 1:
% inhibition=((HC−LC)−(HTRF^compound−LC))/(HC−LC))*100 (Eqn 1)
Where LC and HC are the HTRF values of the assay in the presence or absence of a saturating concentration of a compound that competes with FITC-MBM1 for binding to menin, and HTRF^compound is the measured HTRF value in the presence of the test compound. HC and LC HTRF values represent an average of at least 16 replicates per plate.
% inhibition=Bottom+(Top−Bottom)/(1+10^((log IC50−log [cmpd])*h)) (Eqn 2)
Where Bottom and Top are the lower and upper asymptotes of the dose-response curve, respectively, IC50 is the concentration of compound that yields 50% inhibition of signal and h is the Hill coefficient.
Preparation of Terbium cryptate labeling of Menin: Menin (a.a. 1-610-6×his tag) was labeled with terbium cryptate as follows. 2 mg of Menin was buffer exchanged into 1× phosphate buffered saline. 16 uM Menin was incubated with 4-fold molar excess NHS-terbium cryptate (Cisbio Bioassays, Bedford, Mass.) for 2 hours at room temperature. The labeled protein was purified away from free label by running the reaction over a Superdex 200 Increase 10/300 GL column at 0.75 ml/min. Peak fractions were collected, aliquoted and frozen at −80° C.

MV-4-11 cells [2] = assay: Proliferation assay A (spheroid assay) MV-4-11; format: cell-based; conditions: Homo sapiens, MV4-11, 192 h, 8 d, AUC of confluence against time, absolute IC50, read-out: (3a) Spheroid assay MV-4-11 (IC50(μM)) Assay A
Description: (§1) 3a) Proliferation Assay A
(§2) The anti-proliferative effect of menin/MLL protein/protein interaction inhibitor test compounds was assessed in human leukemia cell lines. The cell lines MV-4-11 and MOLM14 harbor MLL translocations and express the MLL fusion proteins MLL-AF4 and MLL-AF9, respectively, as well as the wildtype protein from the second allele. […] K562 was used as a control cell line containing two MLL wildtype alleles in order to exclude compounds that display general cytotoxic effects.
(§3) MV-4-11 and MOLM14 were cultured in RPMI-1640 (Sigma Aldrich) supplemented with 10% fetal bovine serum (HyClone), 2 mM L-glutamine (Sigma Aldrich) and 50 μg/ml gentamycin (Gibco). K562 were propagated in RPMI-1640 (Sigma Aldrich) supplemented with 20% fetal bovine serum (HyClone), 2 mM L-glutamine (Sigma Aldrich) and 50 μg/ml gentamycin (Gibco).
(§4) In order to assess the anti-proliferative effects, 1,500 MV-4-11, 300 MOLM14 or 750 K562 cells were seeded in 200 μl media per well in 96-well round bottom, ultra-low attachment plates (Costar, catalogue number 7007). Cell seeding numbers were chosen based on growth curves to ensure linear growth throughout the experiment. Test compounds were added at different concentrations and the DMSO content was normalized to 0.3%. Cells were incubated for 8 d at 37° C. and 5% CO2. Spheroid like growth was monitored in real-time by live-cell imaging (IncuCyteZOOM, Essenbio, 4× objective) acquiring one image every four hours for 8 d. Confluence (%) as a measure of spheroid size was determined using an integrated analysis tool.
(§5) In order to determine the cumulative effect of the test compounds over time, the area under the curve (AUC) in a plot of confluence against time was calculated. Confluence at the beginning of the experiment (t=0) was used as baseline for the AUC calculation.
(§6) Absolute IC50 values were calculated according to the following procedure:
(§7) % Control=(AUC sample/AUC control)*100
(§8) AUC control=mean AUC of control values (cells without compound/DMSO as vehicle control)
(§9) A non-linear curve fit was applied using the least squares (ordinary) fit method to the plot of % control versus compound concentration. Based on this, the absolute IC50 value (half maximal inhibitory concentration of the test compound causing an anti-proliferative effect of 50% relative to the vehicle control) was calculated.

MOLM14 cells [3] = assay: Proliferation assay A (spheroid assay) MOLM14; format: cell-based; conditions: Homo sapiens, MOLM-14, 192 h, 8 d, AUC of confluence against time, absolute IC50, read-out: (3a) Spheroid assay MOLM14 (IC50(μM)) Assay A
Description: as §1, §2, §3, §4, §5, §6, §7, §8, §9

MV-4-11 cells [4] = assay: Proliferation assay B (spheroid assay) MV-4-11; format: cell-based; conditions: Homo sapiens, MV4-11, 192 h, confluence at day 8, read-out: (3b) Spheroid assay MV-4-11 (IC50(μM)) Assay B
Description: (§10) 3b) Proliferation Assay B
as §2
MV-4-11 and MOLM14 were cultured in RPMI-1640 (Sigma Aldrich) supplemented with 10% fetal bovine serum (HyClone), 2 mM L-glutamine (Sigma Aldrich) and 50 μg/ml gentamycin (Gibco). […]
In order to assess the anti-proliferative effects, 1,500 MV-4-11, 300 MOLM14 cells or 750 K562 cells were seeded in 200 μl media per well in 96-well round bottom, ultra-low attachment plates (Costar, catalogue number 7007). […] Spheroid like growth was measured in real-time by live-cell imaging (IncuCyteZOOM, Essenbio, 4× objective) acquiring images at day 8. Confluence (%) as a measure of spheroid size was determined using an integrated analysis tool.
In order to determine the effect of the test compounds over time, the confluence in each well as a measure of spheroid size, was calculated. […]
Absolute IC50 values were calculated as percent change in confluence as follows: […]

MOLM14 cells [5] = assay: Proliferation assay B (spheroid assay) MOLM14; format: cell-based, human; conditions: Homo sapiens, MOLM-14, 192 h, confluence at day 8, read-out: (3b) Spheroid assay MOLM14 (IC50(μM)) Assay B
Description: as §10, §2, §3
as §4, with “MOLM14 cells” for “MOLM14”, “measured” for “monitored”, “images at day 8.” for “one image every four hours for 8 d.”
In order to determine the effect of the test compounds over time, the confluence in each well as a measure of spheroid size, was calculated. Confluence […] at the beginning of the experiment (t=0) was used as baseline for the calculation.
Absolute IC50 values were calculated as percent change in confluence as follows:
LC=Low Control: cells treated with 1 μM of the cytotoxic agent staurosporin
HC=High Control: Mean confluence (%) (DMSO treated cells)
Effect=100−(100*(Sample−LC)/(HC−LC))
To determine the IC50 a curve is fitted to the plot of % Effect vs Log 10 compound concentration using a sigmoidal fit with a variable slope and fixing the maximum to 100% and the minimum to 0%.

[6] = location 1, read-out: (2) location 1 Menin HTRF assay (IC50 (nM))
[7] = location 2, read-out: (2) location 2 Menin HTRF assay (IC50 (nM))

Row | SMILES | IC50 [1, 6] [nM] | IC50 (MV-4-11 cells [2]) [µM] | IC50 (MOLM14 cells [3]) [µM] | IC50 [1, 7] [nM] | IC50 (MV-4-11 cells [4]) [µM] | IC50 (MOLM14 cells [5]) [µM]
1 | FC(F)(F)Cc1cc2c(N3CC4(CC[C@H](NCc5ccccc5)C4)C3)ncnc2s1 [Compound 45] | 20.4 | 0.41 | 2.36 |  |  | 
2 | N#CCn1c(=O)[nH]c2cc(CNC3CCC4(C3)CN(c3ncnc5sc(CC(F)(F)F)cc35)C4)ccc21 (stereo not shown) [Compound 99] |  |  |  | 1.1 | 0.03 | 0.19
3 | FC(F)(F)Cc1cc2c(N3CCC4(CCC(Nc5ccc(-c6cc[nH]n6)cc5)C4)C3)ncnc2s1 (stereo not shown) [Compound 138] |  | 3.92 | > 3.75 | 8.8 |  | 

Continued by falling IC50 (MOLM14 cells [3]), values first:

Row | IC50 [1, 6] [nM] | IC50 (MV-4-11 cells [2]) [µM] | IC50 (MOLM14 cells [3]) [µM] | IC50 [1, 7] [nM] | IC50 (MV-4-11 cells [4]) [µM] | IC50 (MOLM14 cells [5]) [µM] | SMILES
4 |  | 0.45 | 2 | 5.1 |  |  | O=c1[nH]c2ccc(CN[C@H]3CCC4(C3)CN(c3ncnc5sc(CC(F)(F)F)cc35)C4)cc2o1 (single isomer, unassigned) [Compound 56]
5 | 22 | 0.31 | 1.87 |  |  |  | FC(F)(F)Cc1cc2c(N3CC4(CCC(NCc5ccccc5)C4)C3)ncnc2s1 (single isomer, unassigned) [Compound 46]
6 |  |  | 0.14 |  |  |  | O=c1[nH]c2cc(CN[C@H]3CCC4(C3)CN(c3ncnc5sc(CC(F)(F)F)cc35)C4)ccc2o1 (single isomer, unassigned) [Compound 58]
